Patent US5952204A, “β-fructofuranosidase, its preparation and uses” (priority 1995, dated 1999)

Legend:
β-fructofuranosidase [1] = assay: Acceptor specificity (TLC, sucrose as donor); type: biochemical, Bacillus sp. V230 (FERM BP-5054); settings: summary of Table 1
Protocol: A saccharide solution with a final concentration of 10%, which consists of one of the monosaccharides, oligosaccharides, and alcohols in Table 1, and an equal amount of sucrose as a donor, d.s.b., was mixed with 2 units/g sucrose of a purified β-fructofuranosidase obtained by the method in Experiment 2, and allowed to react enzymatically at 40° C. and pH 5.5 for 24 hours. The mixtures before the enzymatic reaction and the reaction mixtures after the enzymatic reaction were subjected to TLC similarly as in Experiment 4, and the saccharides were colored by spraying 0.5-N phosphoric acid containing 0.2 w/v % naphthoresorcinol and heating at 110° C. for about 5 min to check the formation of transferred saccharides.

β-fructofuranosidase [2] = assay: Substrate specificity (TLC); type: biochemical, Bacillus sp. V230 (FERM BP-5054); settings: 2 w/v % substrate, 2 units/g substrate, 40° C., pH 5.5, 24 hours
Protocol: A solution with a final concentration of 2 w/v % raffinose, erlose, stachyose, lactose, xylofructoside, maltose, cellobiose, lactose, inulin or laevan as a substrate was mixed with 2 units/g substrate of a β-fructofuranosidase obtained by the method in Experiment 2, and allowed to react enzymatically at 40° C. and pH 5.5 for 24 hours. The reaction mixture was subjected to thin layer chromatography (hereinafter abbreviated as "TLC") using "KIESEL GEL 60", an aluminum plate, 20×20 cm, commercialized by Merck & Co., Inc., NJ, USA, to confirm whether the enzyme acts on these saccharides. The solvent system used in the TLC consisted of 1-butanol, pyridine, and water (=7:3:1 by volume), and samples were developed once at ambient temperature. The saccharides comprising fructose units as constituent saccharides were colored by spraying a 0.5-N phosphoric acid solution containing 0.2 w/v % naphthoresorcinol and heating at 110° C. for about 5 min, while other saccharides were colored by spraying a methanol solution containing 20 w/v % sulfuric acid and heating at 110° C. for about 10 min.

dd-strain mice = assay: Acute toxicity test, oral; type: in vivo; settings: 7-week-old dd-strain mice
Protocol: Using 7-week-old dd-strain mice, a powder rich in lactosucrose, obtained by the method in Example A-4 described later, was administered orally to the mice for acute toxicity test. No mouse died up to a dose of 15 g/kg mouse, and a higher dose test was impossible. […] Similarly as above, a powder rich in erlose obtained by the method in Example A-6 described later, a syrup rich in xylosylfructoside obtained by the method in Example A-8 described later, a syrup rich in fructosyltrehalose obtained by the method in Example A-11, or a syrup rich in isomaltosylfructoside obtained by the method in Example A-12 described later was orally administered to 7-week-old dd-strain mice for acute toxicity test. No mouse died up to a dose of 15 g/kg mouse, and a higher does test was impossible.

β-fructofuranosidase [3] = assay: Inhibition of the enzyme activity by metal ions; type: biochemical, Bacillus sp. V230 (FERM BP-5054); settings: one mM metal ion
Protocol: The activity of β-fructofuranosidase according to the present invention is assayed as follows: Add 0.2 ml of an enzyme solution to 5 ml of an aqueous solution (pH 6.0) consisting of 1.0 w/v % sucrose, 20 mM acetate buffer, and 5 mM calcium chloride. Incubate the mixture at 40° C. for 10 min, add the Somogyi copper solution to suspend the reaction, and assay the reducing power by the Somogyi-Nelson's method. As a control, provide an enzyme solution pre-heated to inactivate the enzyme at 100° C. for 10 min, and assay the reducing power similarly as above. One unit activity of the enzyme is defined as the amount of enzyme that increases the reducing power of 2 μmol glucose per minute when assayed on the above assay.
In accordance with the method used in the above assay for the enzyme activity, the influence of pH and temperature on the present β-fructofuranosidase activity was studied in the presence of or in the absence of 5 mM calcium chloride. […] The optimum pH of the enzyme was about 5.5-6.0 when incubated at 40° C. for 10 min both in the presence of and in the absence of calcium ion, while the optimum temperature of the enzyme was about 50° C. in the presence of calcium ion and about 45° C. in the absence of calcium ion when incubated at pH 6.0 for 10 min. The pH stability of the present enzyme was determined by incubating in 50 mM buffers with different pHs at 4° C. for 24 hours, and assaying the residual enzyme activity after adjusting the buffers to pH 6. The thermal stability of the enzyme was determined by incubating in 20 mM acetate buffers (pH 6.0) at different temperatures for an hour, and assaying the residual enzyme activity in each buffer after cooling the buffers. The results of pH and thermal stabilities of the present enzyme were respectively in FIGS. 3 and 4. The pH stability of the enzyme was about 5.0-8.0, and the thermal stability was about 45° C. […] One mM Cu^++, Pb^++, Fe^++, Fe^+++ or Hg^++ inhibited the enzyme activity.

| Molecule | Transfer of fructosyl residue to the acceptor (in words) (β-fructofuranosidase [1]) | Action of the enzyme on the substrate (release of fructose) (β-fructofuranosidase [2]) | further results |
| --- | --- | --- | --- |
| OC[C@H]1O[C@H](OC[C@H]2O[C@H](O[C@H]3[C@H](O)[C@@H](O)C(O)O[C@@H]3CO)[C@H](O)[C@@H](O)[C@@H]2O)[C@H](O)[C@@H](O)[C@@H]1O (some centres unmarked) [Panose] | effectively transfers |  |  |
| inulin |  | does not act on |  |
| OC[C@H]1O[C@@H](O[C@H]2[C@H](O)[C@@H](O)[C@@H](O[C@]3(CO)O[C@H](CO)[C@@H](O)[C@@H]3O)O[C@@H]2CO)[C@H](O)[C@@H](O)[C@H]1O [lactosucrose] |  | acts on | Toxicity (in words) (dd-strain mice): relatively low in toxicity |
| O=C[C@H](O)[C@@H](O)[C@H](O)CO [D-Xylose] | effectively transfers |  |  |
| [Cu+2] [Cu^++] |  |  | Inhibition of the enzyme activity (β-fructofuranosidase [3]): inhibited |
| [Fe+2] [Fe^++] |  |  | Inhibition of the enzyme activity (β-fructofuranosidase [3]): inhibited |
| laevan |  | does not act on |  |
| OC[C@H]1O[C@H](O[C@H]2[C@H](O)[C@@H](O)[C@@H](O[C@H]3[C@H](O)[C@@H](O)C(O)O[C@@H]3CO)O[C@@H]2CO)[C@H](O)[C@@H](O)[C@@H]1O (some centres unmarked) [Maltotriose] | effectively transfers |  |  |
| OC[C@H]1O[C@H](OC[C@H]2O[C@H](OC[C@H]3O[C@H](O[C@]4(CO)O[C@H](CO)[C@@H](O)[C@@H]4O)[C@H](O)[C@@H](O)[C@@H]3O)[C@H](O)[C@@H](O)[C@H]2O)[C@H](O)[C@@H](O)[C@H]1O [stachyose] |  | acts on |  |
| OCC(O)CO [Glycerol] | effectively transfers |  |  |
| OC[C@H]1O[C@H](O[C@H]2O[C@H](CO)[C@@H](O)[C@H](O)[C@H]2O)[C@H](O)[C@@H](O)[C@@H]1O [Trehalose] | effectively transfers |  |  |
| O=C[C@H](O)[C@@H](O)[C@@H](O)[C@H](O)CO [D-Galactose] | effectively transfers |  |  |
| OC[C@H]1O[C@H](OC[C@H]2O[C@H](O[C@]3(CO)O[C@H](CO)[C@@H](O)[C@@H]3O)[C@H](O)[C@@H](O)[C@@H]2O)[C@H](O)[C@@H](O)[C@H]1O [Raffinose] |  | acts on |  |
| OC[C@H]1O[C@@H](O[C@H]2[C@H](O)[C@@H](O)C(O)O[C@@H]2CO)[C@H](O)[C@@H](O)[C@H]1O (some centres unmarked) [Lactose] | effectively transfers | does not act on |  |
| OC[C@H]1O[C@H](OC[C@H]2OC(O)[C@H](O)[C@@H](O)[C@@H]2O)[C@H](O)[C@@H](O)[C@@H]1O (some centres unmarked) [Isomaltose] | effectively transfers |  |  |
| OC[C@@H](O)[C@@H](O[C@H]1O[C@H](CO)[C@@H](O)[C@H](O)[C@H]1O)[C@H](O)[C@@H](O)CO [Maltitol] | effectively transfers |  |  |
| OC[C@H]1O[C@@](CO)(O[C@H]2O[C@H](CO)[C@@H](O)[C@H](O)[C@H]2O)[C@@H](O)[C@@H]1O [sucrose] |  | acts on |  |
| OC[C@H]1O[C@H](O[C@H]2[C@H](O)[C@@H](O)[C@H](O)O[C@@H]2CO)[C@H](O)[C@@H](O)[C@@H]1O [Maltose] | effectively transfers | does not act on |  |
| OC[C@H]1O[C@@H](O[C@H]2[C@H](O)[C@@H](O)C(O)O[C@@H]2CO)[C@H](O)[C@@H](O)[C@@H]1O (some centres unmarked) [Cellobiose] | effectively transfers | does not act on |  |
| OC[C@@H](O)[C@@H](O)[C@H](O)[C@@H](O)CO [D-Sorbitol] | effectively transfers |  |  |
| OC[C@H]1O[C@@](CO)(O[C@H]2O[C@H](CO)[C@@H](O[C@H]3O[C@H](CO)[C@@H](O)[C@H](O)[C@H]3O)[C@H](O)[C@H]2O)[C@@H](O)[C@@H]1O [erlose] |  | acts on |  |
| OC[C@@H](O)[C@H](O)[C@@H](O)CO [D-Xylitol] | effectively transfers |  |  |
| [Fe+3] [Fe^+++] |  |  | Inhibition of the enzyme activity (β-fructofuranosidase [3]): inhibited |
| [Hg+2] [Hg^++] |  |  | Inhibition of the enzyme activity (β-fructofuranosidase [3]): inhibited |
| OC[C@H]1O[C@@](CO)(O[C@H]2OC[C@@H](O)[C@H](O)[C@H]2O)[C@@H](O)[C@@H]1O [xylofructoside] |  | acts on |  |
| [Pb+2] [Pb^++] |  |  | Inhibition of the enzyme activity (β-fructofuranosidase [3]): inhibited |
| OCCO [Ethylene glycol] | effectively transfers |  |  |
| OC[C@H]1O[C@H](OC[C@H]2OC(O)[C@H](O)[C@@H](O)[C@@H]2O)[C@H](O)[C@@H](O)[C@H]1O (some centres unmarked) [Melibiose] | effectively transfers |  |  |
